Results published in patent US20220313651A1, “INHIBITORS OF ZIKA VIRUS INFECTION” (priority 2019, published 2022).
pKd: −log10 of the molar value.

How the values were obtained:
ZIKV EDIII protein = molecular target: T1, ZIKV EDIII protein (Zika virus, UniProt Q32ZE1, D679E/I627V/V603I/V629A); assay: SPR binding to ZIKV EDIII protein; settings: 1:1 binding model, read-out: KD (binding affinity) to ZIKV EDIII protein
T1 construct: human Fc (C)
Description: Briefly, ZIKV EDIII protein or NS2B-NS3 protein were immobilized on a sensor chip (CM5) using Amine Coupling Kit. Serially diluted ST087010 was added as analytes, and HBS-EP with 10% DMSO (10 mM HEPES, 150 mM NaCl, 3 mM EDTA, 0.05% Tween-20, 10% DMSO, pH 7.4) was used as running buffer. Biacore BK evaluation software (version 1.1) was applied to analyze the data, and the curve was fitted with a 1:1 binding model.

[1] = system: ZIKV human strain PAN2016; assay: ZIKV PAN2016 infection of Ifnar1-/- mice: tissue viral titers, immunofluorescence; assay type: in vivo; settings: 20 mg/kg i.p., 5 dpi
From the text: FIG. 8A is a schematic diagram of experimental procedures. […] The treated mice were infected with ZIKV human strain R103451 (200 plaque forming unit (PFU)/mouse), followed by evaluation of survival rate (FIG. 8B) or weight changes (FIG. 8C) for 21 days. The data are expressed as mean±s.e.m. of mice in each group (n=6). In a separate experiment, ST087010 or gossypol-treated mice were infected with ZIKV human strain PAN2016 (200, PFU/mouse). Five days post-infection (dpi), viral titers were detected in tissues by plaque assay (FIG. 8D), and ZIKV or caspase-3 signals were measured in eye (FIG. 8E) and testis ([…]) tissues by immunofluorescence staining. The data are expressed as mean±s.e.m. of mice in each group (n=5), and significant differences among different groups are shown as *, **, and ***. The detection limit is 25 PFU/g. ZIKV and caspase-3 (in FIG. 8E-F) were stained with anti-ZIKV and anti-active caspase-3 antibodies, respectively. Nuclei were stained with DAPI (40,6-diamidino-2-phenylindole). Representative images of immunofluorescence staining are shown. Magnification, 63×, and scale bar, 10 μm.
ST087010 was evaluated for protection against ZIKV infection in ZIKV-susceptible Ifnar1^−/− mice. Briefly, 7-8-week-old male mice were used, and two separate experiments were performed. […] These mice were infected by i.p. injection with ZIKV (human strain R103451, 200 PFU/mouse), and observed daily for weight changes and survival until 21 days post-infection (dpi). […]
Plaque assay was used to detect viral titers in ZIKV-infected tissues. […] ZIKV titers in tissues were measured from ˜40 mg of samples, and thus the detection limit is about 25 PFU/g of tissues.
(§1) Immunofluorescence staining was carried out to detect ZIKV and caspase-3 signals in ZIKV-infected mouse tissues. […] The slides were analyzed using a confocal microscope (Zeiss LSM 880) and ZEN software, and fluorescent signals were quantified by ImageJ software. […]

[2] = system: ZIKV human strain R116265; assay: ZIKV vertical transmission in pregnant Ifnar1-/- mice; assay type: in vivo; settings: 20 mg/kg i.p.
Description: Pregnant mice (at embryonic day (E) 12-14) were i.p. treated with ST087010 (20 mg/kg) or DMSO (control) 12 h before and 6, 24 and 48 after infection with ZIKV human strain R116265 (10^3 PFU/mouse). Viral titers were detected, by plaque assay, in sera (FIG. 9A), placenta (FIG. 9B), fetal brain (FIG. 9C), and amniotic fluid (FIG. 9D) at 5 days post infection (dpi). The data are expressed as mean±s.e.m. of mice in each group (n=5), and significant differences among different groups are shown. The detection limit is 25 PFU/ml (for sera and amniotic fluid), or 25 PFU/g (for placenta and fetal brain). Representative images of morphology of mouse uteri and fetuses at 5 dpi are shown. FIG. 9E depicts E17-19 uteri from pregnant mice challenged at E12-14. Fetal morphology (FIG. 9F) and fetal size (FIG. 9G) were detected. ZIKV or caspase-3 signals were measured in placentas by immunofluorescence staining (FIG. 9H). ZIKV and caspase-3 were stained with anti-ZIKV and anti-active caspase-3 antibodies, respectively. Nuclei were stained with DAPI. Representative images of immunofluorescence staining are shown. Magnification, 63×, and scale bar 10 μm.
ST087010 was evaluated for protection against ZIKV-caused fetal damage and death in pregnant Ifnar1^−/− mice. Briefly, groups of 5 pregnant mice (10- to 12-weeks old, E12-14) were injected intraperitoneally with ST087010 (20 mg/kg of body weight), or DMSO (control) 12 h before and 6, 24 and 48 h after i.p. infection with ZIKV (human strain R116265, 10^3 PFU). Five days post-infection, mice were sacrificed; viral titers were determined using plaque assay in sera, placenta, fetal brain and amniotic fluid, and uteri and fetuses were evaluated for morphological and size changes. Placenta was also assessed for apoptosis and viral replication by immunofluorescence staining.
as §1

T1 sequence (Q32ZE1 584-695 V603I/I627V/V629A/D679E): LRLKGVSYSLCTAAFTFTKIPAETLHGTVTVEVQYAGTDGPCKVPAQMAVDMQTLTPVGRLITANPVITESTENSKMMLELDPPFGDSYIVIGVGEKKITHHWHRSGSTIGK

SMILES: Cc1cc2c(C(C)C)c(O)c(O)c(/C=N/n3c(=O)[nH][nH]c3=O)c2c(O)c1-c1c(C)cc2c(C(C)C)c(O)c(O)c(/C=N/n3c(=O)[nH][nH]c3=O)c2c1O [ST087010]
- pKd (ZIKV EDIII protein): 5.31
- Viral titers in tissues (plaque assay) ([1]; ZIKV PAN2016 200 PFU/mouse, heart, testis, eye, kidney, brain): significantly reduced viral titers
- ZIKV+ signals in eye and testis tissues ([1]; ZIKV PAN2016, immunofluorescence): undetectable
- Caspase-3 staining in eye and testis tissues ([1]; ZIKV PAN2016, immunofluorescence, vs DMSO): undetectable or diminished staining
- ZIKV+ or caspase-3 signals in placental tissues ([2]; ZIKV R116265, immunofluorescence, vs DMSO): undetectable or diminished
- Condition of fetuses and uteri morphology ([2]; pregnant mice E12-14, ZIKV R116265 10^3 PFU, 5 dpi): all in good condition
- Viral titers in sera, placenta, fetal brain and amniotic fluid ([2]; pregnant mice E12-14, ZIKV R116265 10^3 PFU, 5 dpi, vs DMSO): significantly reduced
